Data on 25 molecules can be found in patent US20130217664A1, “NOVEL COMPOUNDS USEFUL FOR THE TREATMENT OF DEGENERATIVE AND INFLAMMATORY DISEASES” (priority 2012, published 2013).

For one assay, the target named is T1, human JAK1 (Homo sapiens, UniProt P23458).
T1 construct: catalytic domain, amino acids 866-1154; catalog number PV4774; purchased Invitrogen PV4774
Nature of the assay: JAK1 inhibition assay (polyGT substrate / Ulight-JAK1 peptide). The following applies: recombinant human JAK1 catalytic domain; polyGT or Ulight-JAK1 peptide assay. It counts as biochemical. Here is the method: 1.1 JAK1 Inhibition Assay
1.1.1 JAK1 Assay polyGT Substrate
After 45 min at 30° C., reactions are stopped by adding of 25 μL/well of 150 mM phosphoric acid. […] Plates are washed 6 times with 300 μL per well of a 75 mM phosphoric acid solution and the bottom of the plates is sealed. 40 μL/well of Microscint-20 is added, the top of the plates is sealed and readout is performed using the Topcount (Perkin Elmer). Kinase activity is calculated by subtracting counts per min (cpm) obtained in the presence of a positive control inhibitor (10 μM staurosporine) from cpm obtained in the presence of vehicle. The ability of a test compound to inhibit this activity is determined as:
(§1) Percentage inhibition=((cpm determined for sample with test compound present−cpm determined for sample with positive control inhibitor)divided by(cpm determined in the presence of vehicle−cpm determined for sample with positive control inhibitor))*100.
Dose dilution series are prepared for the compounds enabling the testing of dose-response effects in the JAK1 assay and the calculation of the IC50 for each compound.
1.1.2 JAK1 Ulight-JAK1 Peptide Assay
(§2) After 60 min at room temperature, reactions were stopped by adding 20 μL/well of detection mixture (1× detection buffer (Perkin Elmer, catalog number CR97-100C), 0.5 nM Europium-anti-phosphotyrosine (PT66) (Perkin Elmer, catalog number AD0068), 10 mM EDTA). […] Kinase activity was calculated by subtracting relative fluorescence units (RFU) obtained in the presence of a positive control inhibitor (10 μM staurosporine) from RFU obtained in the presence of vehicle. The ability of a test compound to inhibit this activity was determined as:
(§3) Percentage inhibition=((RFU determined for sample with test compound present−RFU determined for sample with positive control inhibitor)divided by(RFU determined in the presence of vehicle−RFU determined for sample with positive control inhibitor))*100.
Dose dilution series were prepared for the compounds enabling the testing of dose-response effects in the JAK1 assay and the calculation of the IC50 for the compound. Each compound is routinely tested at concentration of 20 μM followed by a 1/5 serial dilution, 10 points in a final concentration of 1% DMSO. […] The data are expressed as the average IC50 from the assays±standard error of the mean.

The target of a further assay is T2, human JAK2 (Homo sapiens, UniProt O60674).
T2 construct: catalytic domain (amino acids 808-1132; catalog number PV4210); GST; purchased Invitrogen PV4210
T2 sequence (O60674 808-1132): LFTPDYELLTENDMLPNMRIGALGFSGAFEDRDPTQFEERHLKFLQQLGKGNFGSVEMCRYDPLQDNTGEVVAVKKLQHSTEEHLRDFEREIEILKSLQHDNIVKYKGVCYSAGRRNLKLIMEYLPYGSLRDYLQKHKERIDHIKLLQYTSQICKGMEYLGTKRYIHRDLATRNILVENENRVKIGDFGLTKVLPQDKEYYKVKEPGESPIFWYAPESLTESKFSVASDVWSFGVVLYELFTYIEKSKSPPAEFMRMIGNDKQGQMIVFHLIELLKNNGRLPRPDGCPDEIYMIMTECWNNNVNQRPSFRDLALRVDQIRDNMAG
Nature of the assay: JAK2 inhibition assay (polyGT substrate / Ulight-JAK1 peptide). It counts as biochemical. To be noted: recombinant human JAK2 catalytic domain; polyGT or Ulight-JAK1 peptide assay. Here is the method: 1.2 JAK2 Inhibition Assay
1.2.1 JAK2 Assay polyGT Substrate
0.025 mU of JAK2 is incubated with 2.5 μg polyGT substrate (Sigma catalog number P0275) in kinase reaction buffer (5 mM MOPS pH 7.5, 9 mM MgAc, 0.3 mM EDTA, 0.06% Brij and 0.6 mM DTT, 1 μM non-radioactive ATP, 0.25 μCi ^33P-gamma-ATP (GE Healthcare, catalog number AH9968) final concentrations) with or without 5 μL containing test compound or vehicle (DMSO, 1% final concentration), in a total volume of 25 μL, in a polypropylene 96-well plate (Greiner, V-bottom). After 90 min at 30° C., reactions are stopped by adding of 25 μL/well of 150 mM phosphoric acid. […] Plates are washed 6 times with 300 μL per well of a 75 mM phosphoric acid solution and the bottom of the plates is sealed. 40 μL/well of Microscint-20 is added, the top of the plates is sealed and readout is performed using the Topcount (Perkin Elmer). Kinase activity is calculated by subtracting counts per min (cpm) obtained in the presence of a positive control inhibitor (10 μM staurosporine) from cpm obtained in the presence of vehicle. The ability of a test compound to inhibit this activity is determined as:
as §1
Dose dilution series are prepared for the compounds enabling the testing of dose-response effects in the JAK2 assay and the calculation of the IC50 for each compound.
1.2.2 JAK2 Ulight-JAK1 Peptide Assay
as §2, §3
Dose dilution series are prepared for compound enabling the testing of dose-response effects in the JAK2 assay and the calculation of the IC50 for the compound. Each compound is routinely tested at concentration of 20 μM followed by a 1/5 serial dilution, 10 points in a final concentration of 1% DMSO. […] The data are expressed as the average IC50 from the assays±standard error of the mean.

T1 sequence (P23458 866-1154): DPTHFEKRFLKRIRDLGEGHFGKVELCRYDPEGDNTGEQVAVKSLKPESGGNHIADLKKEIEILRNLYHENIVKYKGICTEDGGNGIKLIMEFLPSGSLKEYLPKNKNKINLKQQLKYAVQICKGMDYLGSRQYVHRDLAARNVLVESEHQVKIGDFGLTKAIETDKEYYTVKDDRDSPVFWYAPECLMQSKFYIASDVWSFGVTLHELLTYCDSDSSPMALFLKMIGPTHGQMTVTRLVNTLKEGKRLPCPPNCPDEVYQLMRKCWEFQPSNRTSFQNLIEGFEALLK

As for `Cc1ccc(OCCN2CCCC2)cc1N(C)c1cc2c(cn1)ncn2C` [Compound 58, N,1-dimethyl-N-(2-methyl-5-(2-(pyrrolidin-1-yl)ethoxy)phenyl)-1H-imidazo[4,5-c]pyridin-6-amine], the 50% inhibitory concentration (IC50) on human JAK1 and at human JAK2 was more than 1000 nM each time.

As to `Cc1noc(C)c1COc1ccc(N(C)c2cc3c(cn2)ncn3C)cc1` [Compound 20, N-(4-((3,5-dimethylisoxazol-4-yl)methoxy)phenyl)-N,1-dimethyl-1H-imidazo[4,5-c]pyridin-6-amine], the IC50 on human JAK1 and at human JAK2 was more than 1000 nM in each case.

On to `Cc1c(OCCCC#N)cccc1N(C)c1cc2c(cn1)ncn2C` [Compound 66, 4-(2-methyl-3-(methyl(1-methyl-1H-imidazo[4,5-c]pyridin-6-yl)amino)phenoxy)butane nitrile], for which the IC50 is 101 to 500 nM on human JAK1 and more than 1000 nM at human JAK2.

As for `COc1ccc(COc2cccc(N(C)c3cc4c(cn3)ncn4C)c2C)cc1` [Compound 44, N-(3-(4-methoxybenzyloxy)-2-methylphenyl)-N,1-dimethyl-1H-imidazo[4,5-c]pyridin-6-amine], the IC50 is 501 to 1000 nM at human JAK1 and more than 1000 nM at human JAK2.

Consider `Cc1c(Oc2ccc(C#N)nc2)cccc1N(C)c1cc2c(cn1)ncn2C` [Compound 90, 5-(2-methyl-3-(methyl(1-methyl-1H-imidazo[4,5-c]pyridin-6-yl)amino)phenoxy)picolino-nitrile], for which the IC50 was 101 to 500 nM at human JAK1 and more than 1000 nM at human JAK2.

As for `CCc1cc(C(=O)N2CCC(OC)CC2)ccc1N(C)c1cc2c(cn1)ncn2C` [Compound 112, (3-ethyl-4-(methyl(1-methyl-1H-imidazo[4,5-c]pyridin-6-yl)amino)phenyl)(4-methoxypiperidin-1-yl)methanone], the IC50 on human JAK1 and at human JAK2 was more than 1000 nM in each case.

On to `Cc1c(O)cccc1N(C)c1cc2c(cn1)ncn2C` [Compound 46, 2-methyl-3-(methyl(1-methyl-1H-imidazo[4,5-c]pyridin-6-yl)amino)phenol], for which the IC50 at human JAK1 and on human JAK2 was more than 1000 nM throughout.

With `CCc1ccc(CO)cc1N(C)c1cc2c(cn1)ncn2C` [Compound 109, (4-Ethyl-3-(methyl(1-methyl-1H-imidazo[4,5-c]pyridin-6-yl)amino)phenyl)MeOH], the half-maximal inhibitory concentration (IC50) was 101 to 500 nM at human JAK1 and more than 1000 nM on human JAK2.

On to `CCc1cc(C(=O)N(C)C)ccc1N(C)c1cc2c(cn1)ncn2C` [Compound 118, 3-ethyl-N,N-dimethyl-4-(methyl(1-methyl-1H-imidazo[4,5-c]pyridin-6-yl)amino)benzamide], for which the 50% inhibitory concentration (IC50) on human JAK1 is 101 to 500 nM; at human JAK2 it was more than 1000 nM.

As to `CCN(c1cccc(C(O)c2ccccc2)c1)c1cc2c(cn1)ncn2C` (centres unmarked) [Compound 12, (3-(ethyl(1-methyl-1H-imidazo[4,5-c]pyridin-6-yl)amino)phenyl)(phenyl) MeOH], the values for the IC50 on human JAK1 and on human JAK2 were 501 to 1000 nM and more than 1000 nM, respectively.

Regarding `CCc1cc(C(=O)N2CCOCC2)ccc1N(C)c1cc2c(cn1)ncn2C` [Compound 117, (3-ethyl-4-(methyl(1-methyl-1H-imidazo[4,5-c]pyridin-6-yl)amino)phenyl)(morpho-lino)methanone], the values for the half-maximal inhibitory concentration (IC50) on human JAK1 and at human JAK2 were 101 to 500 nM and more than 1000 nM, respectively.

Regarding `Cc1c(OCc2ccc(Cl)cc2)cccc1N(C)c1cc2c(cn1)ncn2C` [Compound 76], the IC50 on human JAK1 and on human JAK2 was more than 1000 nM in each case.

As for `CCc1cc(C(=O)N2CCN(C)CC2)ccc1N(C)c1cc2c(cn1)ncn2C` [Compound 100, (3-ethyl-4-(methyl(1-methyl-1H-imidazo[4,5-c]pyridin-6-yl)amino)phenyl)(4-methylpiperazin-1-yl)methanone], the IC50 is 501 to 1000 nM on human JAK1 and more than 1000 nM at human JAK2.

As for `Cc1cc(C(=O)O)ccc1N(C)c1cc2c(cn1)ncn2C` [Compound 40, 3-methyl-4-(methyl(1-methyl-1H-imidazo[4,5-c]pyridin-6-yl)amino)benzoic acid], the IC50 at human JAK1 and at human JAK2 was more than 1000 nM in each case.

As to `COCCNC(=O)c1ccc(N(C)c2cc3c(cn2)ncn3C)c(C)c1` [Compound 50, N-(2-methoxyethyl)-3-methyl-4-(methyl(1-methyl-1H-imidazo[4,5-c]pyridin-6-yl)amino)benzamide], the IC50 at human JAK1 and at human JAK2 was more than 1000 nM in each case.

`CCc1ccc(C(=O)N(C)C)cc1N(C)c1cc2c(cn1)ncn2C` [Compound 87, 4-Ethyl-N,N-dimethyl-3-(methyl(1-methyl-1H-imidazo[4,5-c]pyridin-6-yl)amino)benzamide]: the IC50 on human JAK1 is 101 to 500 nM; on human JAK2 it was more than 1000 nM.

Regarding `CCc1c(C(=O)OC)cccc1N(C)c1cc2c(cn1)ncn2C` [Compound 96, methyl 2-ethyl-3-(methyl(1-methyl-1H-imidazo[4,5-c]pyridin-6-yl)amino)benzate], the IC50 on human JAK1 and at human JAK2 was more than 1000 nM in each case.

Turning to `CCN(c1cccc(C(=O)c2ccccc2)c1)c1cc2c(cn1)ncn2C` [Compound 9, (3-(ethyl(1-methyl-1H-imidazo[4,5-c]pyridin-6-yl)amino)phenyl)(phenyl) methanone], the concentration for half-maximal inhibition (IC50) on human JAK1 and at human JAK2 was more than 1000 nM each time.

In the case of `Cc1c(OCc2ccc(C#N)nc2)cccc1N(C)c1cc2c(cn1)ncn2C` [Compound 97, 5-((2-methyl-3-(methyl(1-methyl-1H-imidazo[4,5-c]pyridin-6-yl)amino)phenoxy)methyl) picolinonitrile], the IC50 at human JAK1 is 101 to 500 nM; at human JAK2, more than 1000 nM.

Take `COc1ccc(Cc2cc3c(cn2)ncn3C)cc1` [Compound 275, 6-(4-methoxybenzyl)-1-methyl-1H-imidazo[4,5-c]pyridine]: the IC50 at human JAK1 and on human JAK2 was more than 1000 nM in each case.

In the case of `CCc1cc(C(=O)NCCc2ccccc2)ccc1N(C)c1cc2c(cn1)ncn2C` [Compound 99, 3-ethyl-4-(methyl(1-methyl-1H-imidazo[4,5-c]pyridin-6-yl)amino)-N-phenethylbenzamide], the IC50 at human JAK1 was 101 to 500 nM; on human JAK2 it was more than 1000 nM.

Regarding `CCc1ccccc1Oc1cc2c(cn1)ncn2C` [Compound 298, 6-(2-Ethyl-phenoxy)-1-methyl-1H-imidazo[4,5-c]pyridine], the half-inhibitory concentration (IC50) on human JAK1 is 501 to 1000 nM; at human JAK2, more than 1000 nM.

For `Cc1c(OCc2cccnc2)cccc1N(C)c1cc2c(cn1)ncn2C` [Compound 69, N,1-dimethyl-N-(2-methyl-3-(pyridin-3-ylmethoxy)phenyl)-1H-imidazo[4,5-c]pyridin-6-amine], the IC50 at human JAK1 was 101 to 500 nM; at human JAK2, more than 1000 nM.

On to `Cc1c(OCCN2CCCC2)cccc1N(C)c1cc2c(cn1)ncn2C` [Compound 77, N,1-dimethyl-N-(2-methyl-3-(2-(pyrrolidin-1-yl)ethoxy)phenyl)-1H-imidazo[4,5-c]pyridin-6-amine], for which the IC50 on human JAK1 and at human JAK2 was more than 1000 nM throughout.

Turning to `Cc1c(OCC(=O)N(C)C)cccc1N(C)c1cc2c(cn1)ncn2C` [Compound 65, N,N-dimethyl-2-(2-methyl-3-(methyl(1-methyl-1H-imidazo[4,5-c]pyridin-6-yl)amino)phenoxy)acetamide], the IC50 at human JAK1 and on human JAK2 was more than 1000 nM in each case.

Broadly, the IC50 is the midpoint of a concentration-inhibition curve.
